Measured values reported in ChEMBL document CHEMBL1139612 (Bioorg Med Chem Lett, 2005).

Tests used:
[1] = target: T1, Adrenergic receptor alpha-1 (Rattus norvegicus, UniProt P15823+P23944+P43140); assay: Inhibitory concentration against Alpha-1 adrenergic receptor in rat cerebral cortex membrane using [3H]prazosin as radioligand; type: cell membranes
T1 sequence (P15823 whole entry): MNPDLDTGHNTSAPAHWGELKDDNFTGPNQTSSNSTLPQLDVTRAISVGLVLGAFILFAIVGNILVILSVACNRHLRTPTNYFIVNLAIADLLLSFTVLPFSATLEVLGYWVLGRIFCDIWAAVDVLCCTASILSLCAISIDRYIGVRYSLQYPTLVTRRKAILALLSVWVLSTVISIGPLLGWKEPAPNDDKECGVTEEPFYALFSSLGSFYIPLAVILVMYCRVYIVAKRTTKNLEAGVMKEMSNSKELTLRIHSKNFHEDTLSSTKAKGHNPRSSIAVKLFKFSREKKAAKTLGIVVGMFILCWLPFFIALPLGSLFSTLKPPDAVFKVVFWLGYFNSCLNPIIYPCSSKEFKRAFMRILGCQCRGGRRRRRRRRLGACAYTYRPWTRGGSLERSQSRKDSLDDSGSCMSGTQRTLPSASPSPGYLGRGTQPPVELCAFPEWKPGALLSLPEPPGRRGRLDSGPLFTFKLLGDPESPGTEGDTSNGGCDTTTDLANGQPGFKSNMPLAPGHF
T1 sequence (P23944 whole entry): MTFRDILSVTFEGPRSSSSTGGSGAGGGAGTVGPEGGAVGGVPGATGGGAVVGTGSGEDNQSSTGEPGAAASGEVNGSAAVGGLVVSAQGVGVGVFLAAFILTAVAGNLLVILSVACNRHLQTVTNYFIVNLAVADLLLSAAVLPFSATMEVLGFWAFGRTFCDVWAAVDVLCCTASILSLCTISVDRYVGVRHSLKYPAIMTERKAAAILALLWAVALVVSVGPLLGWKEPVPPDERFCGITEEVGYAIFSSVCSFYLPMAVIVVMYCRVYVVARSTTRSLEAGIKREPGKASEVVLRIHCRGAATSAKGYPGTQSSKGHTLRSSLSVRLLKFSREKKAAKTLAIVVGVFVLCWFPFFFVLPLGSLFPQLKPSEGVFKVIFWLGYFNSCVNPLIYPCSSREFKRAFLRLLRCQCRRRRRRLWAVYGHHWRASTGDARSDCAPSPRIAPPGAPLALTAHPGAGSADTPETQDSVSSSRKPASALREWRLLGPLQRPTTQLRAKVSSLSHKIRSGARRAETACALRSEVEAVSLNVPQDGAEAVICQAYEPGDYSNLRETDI
T1 sequence (P43140 whole entry): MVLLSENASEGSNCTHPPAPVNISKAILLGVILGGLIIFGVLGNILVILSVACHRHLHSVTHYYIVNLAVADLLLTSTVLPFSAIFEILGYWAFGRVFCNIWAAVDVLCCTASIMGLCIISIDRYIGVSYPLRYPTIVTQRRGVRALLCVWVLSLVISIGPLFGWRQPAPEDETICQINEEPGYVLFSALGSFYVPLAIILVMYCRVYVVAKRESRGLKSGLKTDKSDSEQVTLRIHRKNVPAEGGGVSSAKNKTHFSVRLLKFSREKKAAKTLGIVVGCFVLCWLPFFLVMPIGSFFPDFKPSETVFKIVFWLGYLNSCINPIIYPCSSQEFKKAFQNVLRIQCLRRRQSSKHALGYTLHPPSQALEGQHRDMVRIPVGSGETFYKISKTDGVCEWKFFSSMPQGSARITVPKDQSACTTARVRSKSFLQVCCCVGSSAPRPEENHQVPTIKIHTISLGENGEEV

[2] = target: Serotonin 1a (5-HT1a) receptor/Adrenergic receptor alpha-1 (Rattus norvegicus) (UniProt P15823+P23944+P43140+P19327); assay: Ratio of alpha-1 adrenergic receptor to that of 5-hydroxytryptamine 1A receptor; type: protein assay
Rattus norvegicus = organism: Rattus norvegicus; assay: Ratio of dopamine receptor D2 to that of 5-hydroxytryptamine 1A receptor
[3] = target: T2, 5-hydroxytryptamine receptor 1A (Rattus norvegicus, UniProt P19327); assay: Inhibitory concentration against 5-hydroxytryptamine 1A receptor in rat hippocampus membrane using [3H]-8-OH-DPAT as radioligand; type: cell membranes
T2 sequence (P19327 whole entry): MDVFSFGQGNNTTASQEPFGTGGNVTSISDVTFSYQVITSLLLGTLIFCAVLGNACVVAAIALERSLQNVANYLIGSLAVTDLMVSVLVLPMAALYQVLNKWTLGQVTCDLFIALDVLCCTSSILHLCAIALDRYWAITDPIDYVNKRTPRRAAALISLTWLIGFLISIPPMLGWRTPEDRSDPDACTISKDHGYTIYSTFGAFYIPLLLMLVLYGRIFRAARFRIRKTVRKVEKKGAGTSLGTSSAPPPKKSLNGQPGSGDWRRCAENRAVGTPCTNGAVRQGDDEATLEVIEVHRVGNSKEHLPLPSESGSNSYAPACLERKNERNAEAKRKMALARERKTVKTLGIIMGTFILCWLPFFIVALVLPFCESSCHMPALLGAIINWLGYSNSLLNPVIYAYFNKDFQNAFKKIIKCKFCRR

D(2) dopamine receptor = D(2) dopamine receptor (Rattus norvegicus, UniProt P61169); assay: Inhibitory concentration against Dopamine receptor D2 in rat striatum membrane using [3H]raclopride as radioligand; type: cell membranes
Chain of D(2) dopamine receptor (P61169 whole entry): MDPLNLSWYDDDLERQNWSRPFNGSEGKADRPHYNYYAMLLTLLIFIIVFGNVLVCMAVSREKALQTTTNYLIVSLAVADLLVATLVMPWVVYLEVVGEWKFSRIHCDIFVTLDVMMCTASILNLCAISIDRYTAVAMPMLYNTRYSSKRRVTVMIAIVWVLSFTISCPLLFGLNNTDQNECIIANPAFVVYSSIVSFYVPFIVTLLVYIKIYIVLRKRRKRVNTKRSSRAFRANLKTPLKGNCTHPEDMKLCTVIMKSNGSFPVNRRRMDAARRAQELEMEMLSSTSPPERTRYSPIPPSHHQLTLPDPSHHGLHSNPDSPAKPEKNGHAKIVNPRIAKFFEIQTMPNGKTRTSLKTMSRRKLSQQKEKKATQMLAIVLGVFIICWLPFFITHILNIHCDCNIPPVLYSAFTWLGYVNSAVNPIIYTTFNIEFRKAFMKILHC

IC50 [1]	Ratio [2]	Ratio (Rattus norvegicus)	IC50 [3]	IC50 (D(2) dopamine receptor)	Structure (SMILES)
43 nM	56	66			O=C1c2ccccc2OC=C(Cl)N1CCCCN1CCN(c2ccccn2)CC1
			314 nM		O=C1c2ccccc2OC=C(Cl)N1CCCCN1CCCC(c2ncccn2)C1 (stereo not given)
544 nM	342	125			O=C1c2ccccc2OC=C(Cl)N1CCCCN1CCN(c2ncccn2)CC1

The next lines start with the molecule.

Structure (SMILES)	IC50 [1]	Ratio [2]	Ratio (Rattus norvegicus)	IC50 [3]	IC50 (D(2) dopamine receptor)
Cl.O=C1c2ccccc2OC=C(Cl)N1CCCCN1CCC(c2ncccn2)CC1	2000 nM	344	310		
Cl.O=C1c2ccccc2OC=C(Cl)N1CCCCN1CCC(O)(c2ncccn2)CC1	9560 nM	3.6			
Cl.O=C1c2ccccc2OC=C(Cl)N1CCCCN1CC=C(c2ncccn2)CC1	924 nM	670	358		
O=C(O)/C=C/C(=O)O.O=C1c2ccccc2OC=C(Cl)N1CCCCN1CCC=C(c2ncccn2)C1	384 nM	4.8	11	79.6 nM	893 nM
